31 compounds from patent publication US7078414B2, “Derivatives of 3-guanidinocarbonyl-1-heteroaryl-pyrrole, preparation process and intermediates of this process, their use as medicaments, and pharmaceutical compositions comprising them” (Sanofi-Aventis Deutschland GmbH, priority 2002, dated 2006) can be followed below.

For one series, the target named is T1, NHE-1 subtype (Homo sapiens, UniProt P19634).
T1 construct: expressed in transfected cells; host or cells: LAP-1 cells (parental line has no endogenous NHE activity), stably transfected and kept under G418 selection
T1 sequence (P19634 whole entry): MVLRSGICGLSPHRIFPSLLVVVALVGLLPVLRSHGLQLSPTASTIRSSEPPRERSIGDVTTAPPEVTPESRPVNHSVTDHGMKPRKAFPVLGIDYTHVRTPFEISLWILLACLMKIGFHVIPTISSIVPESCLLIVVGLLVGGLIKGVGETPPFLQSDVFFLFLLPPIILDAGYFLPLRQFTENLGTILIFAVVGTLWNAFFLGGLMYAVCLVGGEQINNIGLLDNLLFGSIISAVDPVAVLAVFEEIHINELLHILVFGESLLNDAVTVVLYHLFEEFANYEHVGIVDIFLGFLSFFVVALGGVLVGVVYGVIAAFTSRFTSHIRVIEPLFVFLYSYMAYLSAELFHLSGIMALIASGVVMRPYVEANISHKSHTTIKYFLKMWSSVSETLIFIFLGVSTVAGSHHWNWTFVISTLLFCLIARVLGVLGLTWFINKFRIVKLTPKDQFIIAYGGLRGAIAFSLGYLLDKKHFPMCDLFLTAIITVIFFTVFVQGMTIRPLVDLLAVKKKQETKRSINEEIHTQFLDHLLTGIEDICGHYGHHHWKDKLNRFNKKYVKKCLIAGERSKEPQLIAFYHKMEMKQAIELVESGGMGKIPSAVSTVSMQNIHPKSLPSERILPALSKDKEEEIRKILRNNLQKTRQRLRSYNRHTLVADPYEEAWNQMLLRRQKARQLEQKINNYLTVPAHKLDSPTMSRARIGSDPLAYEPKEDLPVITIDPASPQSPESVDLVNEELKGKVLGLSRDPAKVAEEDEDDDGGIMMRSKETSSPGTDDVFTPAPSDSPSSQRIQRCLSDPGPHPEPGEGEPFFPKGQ
The experiment in a line: NHE inhibition FLIPR test (intracellular pH recovery, BCECF) in transfected LAP-1 cell lines expressing NHE subtypes. In kind it is cell-based. The conditions noted are these: transfected LAP-1 cells expressing NHE-1 subtype, read-out: IC50 (NHE1). How it is done:
The NHE inhibitory activities (IC50 values) of the compounds according to the invention were determined by a FLIPR test.
The test is performed in the FLIPR (Fluorescent Imaging Plate Reader) equipped with clear-bottomed and black-walled 96-well microtitration plates.
The growth medium for the transfected cells (Iscove +10% foetal calf serum) also comprises G418 as selection antibiotic to ensure the presence of transfected sequences.
The actual test begins by eliminating the growth medium and adding 100 μl of loading buffer per well (5 μM of BCECF-AM [2′,7′-bis(2-carboxyethyl)-5-(6)-carboxyfluoresceine acetoxymethyl ester] in 20 mM of NH4Cl, 115 mM of choline chloride, 1 mM of CaCl2, 5 mM of KCl, 20 mM of HEPES and 5 mM of glucose; pH 7.4 (adjusted with KOH). The cells are then incubated for 20 minutes at 37° C. This incubation results in the loading of the fluorescent dye into the cells, the fluorescence intensity of which depends on the pHi, and on the NH4Cl, which results in a slight basification of the cells.
The precursor BCECF-AM, a non-fluorescent dye, is, as an ester, capable of crossing the membrane. The actual dye, which is incapable of crossing the membrane, is released inside the cell by esterases.
After this 20-minute incubation, the loading buffer, which comprises NH4Cl and free BCECF-AM, is removed by washing three times in the cell washing device (Tecan Columbus), each wash being performed with 400 μL of washing buffer (133.8 mM of choline chloride, 4.7 mM of KCl, 1.25 mM of MgCl2, 1.25 mM of CaCl2, 0.97 mM of K2HPO4, 0.23 mM of KH2PO4, 5 mM of HEPES and 5 mM of glucose; pH 7.4 (adjusted with KOH)). The residual volume remaining in the wells is 90 μL (possibly between 50 and 125 μL). This washing step removes the free BCECF-AM and results in an intracellular acidification (pHi of 6.3–6.4) due to the removal of the external ammonium ions.
As the equilibrium of the intracellular ammonium with the aqueous ammonia and the protons, by removal of the extracellular ammonium and by the subsequent immediate crossing of the aqueous ammonia across the cell membrane, is disrupted, the washing process results in intracellular protons remaining, which is the cause of the intracellular acidification. This acidification can result finally in the death of the cells if it lasts long enough. It is important here for the washing buffer to be free of sodium (<1 mM), otherwise the extracellular sodium ions would result in an immediate increase in the pHi on account of the activity of the cloned NHE isoforms. It is also important for all the buffers used (loading buffer, washing buffer and regeneration buffer) not to contain any HCO3-ions, otherwise the presence of bicarbonate would result in the activation of bicarbonate-dependent systems that disrupt the pHi regulation, which systems are contained in the LAP-1 parental cell line.
The microtiter plates containing acidified cells are then transferred (up to 20 minutes after the acidification) to the FLIPR. In the FLIPR, the intracellular fluorescent dye is activated with light of a wavelength of 488 nm, which is generated by an argon laser, and the measuring parameters (laser power, illumination time and diaphragm of the […] camera integrated into the FLIPR) are chosen such that the average value of the f fluorescent signal per well is between 30,000 and 35,000 relative fluorescence units.
The actual measurement in the FLIPR starts with a photograph being taken by the CCD camera every two seconds under software control. After 10 seconds, the increase in the intracellular pH is initiated by adding 90 μL of regeneration buffer (133.8 mM of NaCl, 4.7 mM of KCl, 1.25 mM of MgCl2, 1.25 mM of CaCl2, 0.97 mM of K2HPO4, 0.23 mM of KH2PO4, 10 mM of HEPES and 5 mM of glucose; pH 7.4 (adjusted with NaOH)) using a 96-well pipette device incorporated into the FLIPR.
Some wells, to which is added pure regeneration buffer, serve as positive controls (100% NHE activity). […]

Where a name gives a salt, the structure may show the parent alone.

Usually IC50 stands for the concentration needed to halve the response being measured. In general, melting point refers to the temperature, or range, at which the solid turns liquid. With `Cl.N=C(N)NC(=O)c1cn(-c2ccnc3ccccc23)cc1C1CC1` [Example 12, 4-Cyclopropyl-3-guanidinocarbonyl-1-(quinolin-4-yl)-1H-pyrrole dihydrochloride], the melting point amounted to 185 °C. For the same compound, the IC50 at NHE-1 subtype was found to be 0.5 nM. As to `Cc1cn(-c2ccnc3c(F)cccc23)cc1C(=O)N=C(N)N` [Example 22, N-[1-(8-Fluoro-quinolin-4-yl)-4-methyl-1H-pyrrole-3-carbonyl]-guanidine trifluoroacetate], the IC50 at NHE-1 subtype is 0.2 nM. Same read-out and setting: the value for `NC(N)=NC(=O)c1ccn(-c2ccnc3ccccc23)c1` [Example 2, 3-Guanidinocarbonyl-1-(quinol-4-yl)-1H-pyrrole dihydrochloride] was 22 nM; that for `NC(N)=NC(=O)c1ccn(-c2nccc3ccccc23)c1` [Example 5, 3-Guanidinocarbonyl-1-(isoquinol-1-yl)-1H-pyrrole hydrochloride] was 51 nM. Compound `Cc1cn(-c2ncccn2)cc1C(=O)NC(=N)N` [Example 25, N-(4-Methyl-1-pyrimidin-2-yl-1H-pyrrole-3-carbonyl)-guanidine] showed a melting point of 208.5 °C. Turning to `NC(N)=NC(=O)c1ccn(-c2ccnc3ccc(F)cc23)c1` [Example 21, N-[1-(6-Fluoro-quinolin-4-yl)-1H-pyrrole-3-carbonyl]-guanidinetrifluoroacetate], the IC50 at NHE-1 subtype was 29 nM.

`N=C(N)NC(=O)c1ccn(-c2cccc3ncccc23)c1` [Example 6, 3-Guanidinocarbonyl-1-(quinol-5-yl)-1H-pyrrole] gave a melting point of 260 °C. In addition, the IC50 at NHE-1 subtype was determined as 44 nM. As for `Cc1c(C(=O)NC(=N)N)ccn1-c1ccc2ccccc2n1` [Example 4, 3-Guanidinocarbonyl-2-methyl-1-(quinol-2-yl)-1H-pyrrole hydrochloride], the IC50 at NHE-1 subtype is 96 nM. Take `CC(=O)O.Cc1cn(-c2ccc3ccccc3n2)cc1C(=O)NC(=N)N` [Example 29, N-(4-Methyl-1-quinolin-2-yl-1H-pyrrole-3-carbonyl)-guanidine hydrogenacetate]: the melting point amounted to 264.4 °C. At NHE-1 subtype, the IC50 came to 4.3 nM. For `Cc1cn(-c2cccc3ncccc23)cc1C(=O)NC(=N)N.Cl` [Example 13, 3-Guanidinocarbonyl-4-methyl-1-(quinolin-5-yl)-1H-pyrrole hydrochloride], in that order: 240 °C and 0.1 nM. For `Cc1cn(-c2ccccn2)cc1C(=O)NC(=N)N` [Example 26, N-(4-Methyl-1-pyridin-2-yl-1H-pyrrole-3-carbonyl)-guanidine], the IC50 at NHE-1 subtype is 3.6 nM. Take `N=C(N)NC(=O)c1ccn(-c2cccc3cccnc23)c1` [Example 7, 3-Guanidinocarbonyl-1-(quinol-8-yl)-1H-pyrrole]: the melting point is 155 °C. Further, the IC50 on NHE-1 subtype was found to be 90 nM. `NC(N)=NC(=O)c1ccn(-c2ccnc3c(F)cccc23)c1` [Example 23, N-[1-(8-Fluoro-quinolin-4-yl)-1H-pyrrole-3-carbonyl]-guanidinetrifluoroacetate]: the half-inhibitory concentration (IC50) at NHE-1 subtype is 97.7 nM. The same measure, in the same setting: the value for `N=C(N)NC(=O)c1ccn(-c2cncc3ccccc23)c1` [Example 8, 3-Guanidinocarbonyl-1-(isoquinol-4-yl)-1H-pyrrole] was 121 nM.

For the compound `Cc1c(C(=O)NC(=N)N)cn(-c2ccnc3ccccc23)c1C` [Example 11, 3-Guanidinocarbonyl-4,5-dimethyl-1-(quinol-4-yl)-1H-pyrrole dihydrochloride], the concentration for half-maximal inhibition (IC50) at NHE-1 subtype was determined as 19 nM. `Cc1c(C(=O)N=C(N)N)ccn1-c1ccnc2ccccc12` (as salt: hydrochloride) [Example 3, 3-Guanidinocarbonyl-2-methyl-1-(quinol-4-yl)-1H-pyrrole dihydrochloride] had a melting point of 240 °C. As to `Cc1c(C(=O)N=C(N)N)ccn1-c1ccnc2ccccc12` [Example 3, 3-Guanidinocarbonyl-2-methyl-1-(quinol-4-yl)-1H-pyrrole dihydrochloride], the half-inhibitory concentration (IC50) on NHE-1 subtype stood at 67 nM. For `Cc1c(C(=O)NC(=N)N)ccn1-c1ccc2ccccc2n1` (as salt: hydrochloride) [Example 4, 3-Guanidinocarbonyl-2-methyl-1-(quinol-2-yl)-1H-pyrrole hydrochloride], the melting point is 250 °C. With `N=C(N)NC(=O)c1cn(-c2nccc3ccccc23)cc1C(F)(F)F` [Example 15, 4-Trifluoromethyl-3-guanidinocarbonyl-1-(isoquinolin-1-yl)-1H-pyrrole hydrochloride], the IC50 at NHE-1 subtype was found to be 2.6 nM.

For the compound `Cc1cc(-n2ccc(C(=O)N=C(N)N)c2)c2ccccc2n1` [Example 17, N-[1-(2-Methyl-quinolin-4-yl)-1H-pyrrole-3-carbonyl]-guanidinetrifluoroacetate], the IC50 on NHE-1 subtype amounted to 10.7 nM. Same read-out and setting: then `Cc1cc(-n2cc(C)c(C(=O)N=C(N)N)c2)c2ccccc2n1` [Example 16, N-[4-Methyl-1-(2-methyl-quinolin-4-yl)-1H-pyrrole-3-carbonyl]-guanidine trifluoroacetate], with 3.1 nM.

In turn, `NC(N)=NC(=O)c1ccn(-c2ccnc3ccccc23)c1` (as salt: hydrochloride) [Example 2, 3-Guanidinocarbonyl-1-(quinol-4-yl)-1H-pyrrole dihydrochloride] showed a melting point of 244 °C. Take `NC(N)=NC(=O)c1ccn(-c2ccnc3cc(Cl)ccc23)c1` [Example 19, N-[1-(7-Chloro-quinolin-4-yl)-1H-pyrrole-3-carbonyl]-guanidinetrifluoracetate]: on NHE-1 subtype, the IC50 came to 42.9 nM. Compound `CC(=O)O.Cc1cn(-c2cnc3ccccc3c2)cc1C(=O)NC(=N)N` [Example 30, N-(4-Methyl-1-quinolin-3-yl-1H-pyrrole-3-carbonyl)-guanidine hydrogenacetate] registered a melting point of 279.5 °C. Further, on NHE-1 subtype, the IC50 is 17 nM. Regarding `Cc1cn(-c2ccnc3cc(Cl)ccc23)cc1C(=O)N=C(N)N` [Example 18, N-[1-(7-Chloro-quinolin-4-yl)-4-methyl-1H-pyrrole-3-carbonyl]-guanidine trifluoroacetate], the concentration for half-maximal inhibition (IC50) on NHE-1 subtype was found to be 1.6 nM.

For the compound `N=C(N)NC(=O)c1cn(-c2ccnc3ccccc23)cc1C(F)(F)F` [Example 14, 4-Trifluoromethyl-3-guanidinocarbonyl-1-(quinolin-4-yl)-1H-pyrrole], the 50% inhibitory concentration (IC50) at NHE-1 subtype was determined as 2.3 nM. Compound `Cc1cn(-c2nccc3ccccc23)cc1C(=O)NC(=N)N.Cl` [Example 10, 3-Guanidinocarbonyl-1-(isoquinol-1-yl)4-methyl-1H-pyrrole hydrochloride] had a melting point of 247 °C. For the same compound, on NHE-1 subtype, the IC50 is 0.16 nM. Regarding `NC(N)=NC(=O)c1ccn(-c2cnnc3ccccc23)c1` [Example 24, N-(1-Cinnolin-4-yl-1H-pyrrole-3-carbonyl)-guanidine trifluoroacetate], the IC50 at NHE-1 subtype was 222 nM. On the same count and under the same terms, then `Cc1cn(-c2cncnc2)cc1C(=O)NC(=N)N` [Example 28, N-(4-Methyl-1-pyrimidin-5-yl-1H-pyrrole-3-carbonyl)-guanidine], with 192 nM; and `Cc1cn(-c2cccnc2)cc1C(=O)NC(=N)N` [Example 27, N-(4-Methyl-1-pyridin-3-yl-1H-pyrrole-3-carbonyl)-guanidine], with 0.6 nM. On the same count and under the same terms, then `Cc1cn(-c2ccnc3ccc(F)cc23)cc1C(=O)N=C(N)N` [Example 20, N-[1-(6-Fluoro-quinolin-4-yl)-4-methyl-1H-pyrrole-3-carbonyl]-guanidine trifluoroacetate], with 0.8 nM.
